Measured values: article PMC8453936, “Development and in vitro Profiling of Dual FXR/LTA4H Modulators” (Chemmedchem, 2021)
Values joined by “and” are separate entries in the source; they are usually repeats but may differ in a detail not shown here. Equal values may be shown once.

Target: T1, full-length human FXR (Homo sapiens, UniProt Q96RI1)
T1 construct: coding for the full‐length human nuclear receptors FXR and RXRα; expressed in transfected cells; host or cells: HeLa
T1 sequence (Q96RI1 1-486): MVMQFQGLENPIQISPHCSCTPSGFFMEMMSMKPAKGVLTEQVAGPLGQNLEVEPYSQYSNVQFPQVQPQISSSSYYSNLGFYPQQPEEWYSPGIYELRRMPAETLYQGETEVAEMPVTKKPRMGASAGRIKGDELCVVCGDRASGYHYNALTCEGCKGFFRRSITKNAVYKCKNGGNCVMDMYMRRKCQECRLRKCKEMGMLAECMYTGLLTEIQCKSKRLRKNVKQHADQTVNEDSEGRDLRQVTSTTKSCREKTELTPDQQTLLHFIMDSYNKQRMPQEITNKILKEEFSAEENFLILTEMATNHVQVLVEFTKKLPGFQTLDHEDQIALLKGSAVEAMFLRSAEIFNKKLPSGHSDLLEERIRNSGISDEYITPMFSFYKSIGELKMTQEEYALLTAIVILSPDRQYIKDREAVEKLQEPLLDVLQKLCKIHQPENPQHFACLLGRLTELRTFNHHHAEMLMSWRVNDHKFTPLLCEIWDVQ
T1 sequence (P19793 1-462 partner): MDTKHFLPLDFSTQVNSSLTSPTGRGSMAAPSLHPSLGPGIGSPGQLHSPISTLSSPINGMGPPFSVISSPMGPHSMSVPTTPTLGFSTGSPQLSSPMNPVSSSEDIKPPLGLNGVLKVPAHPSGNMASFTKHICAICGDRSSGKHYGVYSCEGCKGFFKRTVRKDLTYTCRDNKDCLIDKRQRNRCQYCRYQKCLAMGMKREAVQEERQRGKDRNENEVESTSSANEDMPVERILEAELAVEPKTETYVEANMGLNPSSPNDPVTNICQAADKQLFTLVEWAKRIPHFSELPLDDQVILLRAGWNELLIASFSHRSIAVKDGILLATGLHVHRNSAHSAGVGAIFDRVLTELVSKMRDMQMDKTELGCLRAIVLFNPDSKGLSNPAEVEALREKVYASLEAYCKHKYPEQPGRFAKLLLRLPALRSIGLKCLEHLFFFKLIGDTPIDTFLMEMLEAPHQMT
Experiment: Full-length FXR:RXR reporter gene assay (BSEP promoter, HeLa, transiently transfected)
Format: cell-based
Conditions: 3 μM GW4064 = 100 % activation; mean±S.E.M., n≥3
Protocol: Full‐length FXR:RXR reporter gene assay. HeLa cells were grown in DMEM high glucose supplemented with 10 % FCS, sodium pyruvate (1 mM), penicillin (100 U/mL) and streptomycin (100 μg/mL) at 37 °C and 5 % CO2 and seeded in 96‐well plates 24 h before transfection with a density of 8000 cells per well. 3.5 h before transfection, medium was changed to DMEM high glucose, supplemented with sodium pyruvate (1 mM), penicillin (100 U/mL), streptomycin (100 μg/mL) and 0.5 % charcoal‐stripped FCS. Cells were then transiently transfected with using the calcium phosphate transfection method with pGL3basic‐BSEP[26, 27] (containing a shortened construct of the promotor of the bile salt export protein (BSEP) cloned into the SacI/NheI cleavage site in front of the luciferase gene), pcDNA3‐hFXR[26] and pSG5‐hRXR[38] coding for the full‐length human nuclear receptors FXR and RXRα, and pRL‐SV40 (Promega) for normalization of transfection efficiency and cell growth. 16 h after transfection, medium was changed to DMEM high glucose, supplemented with sodium pyruvate (1 mM), penicillin (100 U/mL), streptomycin (100 μg/mL) and 0.5 % charcoal‐stripped FCS. 24 h after transfection, medium was changed to DMEM without phenol red, supplemented with sodium pyruvate (1 mM), penicillin (100 U/mL), streptomycin (100 μg/mL), L‐glutamine (2 mM) and 0.5 % charcoal‐stripped FCS, now additionally containing 0.1 % DMSO and the respective test compound or 0.1 % DMSO alone as untreated control. Each sample was tested in triplicate wells and each experiment was repeated independently at least three times. Following 24 h incubation with the test compounds, cells were assayed for luciferase activity using Dual‐Glo Luciferase Assay System (Promega) according to the manufacturer's protocol. Luminescence was measured with a Tecan Spark M luminometer (Tecan). Normalization of transfection efficiency and cell growth was done by division of firefly luciferase data by Renilla luciferase data multiplied by 1000 resulting in relative light units (RLU). Fold activation was obtained by dividing the mean RLU of the tested compound at a respective concentration by the mean RLU of untreated control. EC50 and standard error of the mean values were calculated with the mean fold activation values of at least three independent experiments with SigmaPlot 10.0 (Systat Software GmbH, Erkrath, Germany) using a four‐parameter logistic regression.

SMILES | FXR efficacy (maximum FXR activation relative to 3 μM GW4064)
O=C(O)c1cccc(NC(=O)c2ccc(Oc3cccc(-c4ccccc4)c3)cc2)c1 [compound 12] | 14% and 14±1%
O=C(Nc1nc(C(=O)O)co1)c1ccc(OCCCc2ccccc2)cc1 [compound 20] | 30±1%
CS(=O)(=O)Nc1cccc(NC(=O)c2ccc(OCCCc3ccccc3)cc2)c1 [compound 18] | 35±2%

Same assay, conditions: full-length FXR reporter gene assay, BSEP promoter, HeLa; mean±S.E.M., n≥3

SMILES | EC50
O=C(O)c1cccc(NC(=O)c2ccc(Oc3cccc(-c4ccccc4)c3)cc2)c1 [compound 12] | 300 ± 100 nM
O=C(Nc1nc(C(=O)O)co1)c1ccc(OCCCc2ccccc2)cc1 [compound 20] | 11000 ± 2000 nM
CS(=O)(=O)Nc1cccc(NC(=O)c2ccc(OCCCc3ccccc3)cc2)c1 [compound 18] | 1600 ± 400 nM
O=C(O)Cc1cccc(NC(=O)c2ccc(OCCCc3ccccc3)cc2)c1 [compound 17] | > 30000 nM

Target: T1, full-length human FXR
Experiment: not given
Conditions: 3 μM GW4064 = 100 % activation; mean±S.E.M., n≥3; previously reported; cited from earlier work

SMILES | FXR efficacy (maximum FXR activation relative to 3 μM GW4064)
O=C(O)c1cccc(NC(=O)c2ccc(Oc3ccccc3)cc2)c1 [compound 11] | 35±1%
O=C(O)c1ccc(NC(=O)c2ccc(OCCCCc3ccccc3)cc2)cc1 [compound 7] | 29±1%
COc1c(NC(=O)c2ccc(OCCCCc3ccccc3)cc2)cccc1C(=O)O [compound 6] | 26±1%
O=C(O)c1cccc(NC(=O)c2ccc(OCCc3ccccc3)cc2)c1 [compound 9] | 56±1%
O=C(O)c1ccnc(NC(=O)c2ccc(Oc3ccccc3)cc2)c1 [compound 15] | 56±1%
O=C(O)c1cccc(NC(=O)c2ccc(OCCCCc3ccccc3)cc2)c1 [compound 3] | 34% and 34±1%
O=C(O)c1cccc(NC(=O)c2ccc(OCc3ccccc3)cc2)c1 [compound 10] | 20±1%

Same assay, conditions: full-length FXR reporter gene assay, BSEP promoter, HeLa; mean±S.E.M., n≥3; previously reported; cited from earlier work

SMILES | EC50(FXR) | EC50
O=C(Nc1cccc(C(=O)O)n1)c1ccc(Oc2ccccc2)cc1 [compound 13] | antagonist | –
O=C(O)c1cccc(NC(=O)c2ccc(Oc3ccccc3)cc2)c1 [compound 11] | – | 1 ± 0.3 nM
O=C(O)c1ccc(NC(=O)c2ccc(OCCCCc3ccccc3)cc2)cc1 [compound 7] | – | 14 ± 1 nM
COc1c(NC(=O)c2ccc(OCCCCc3ccccc3)cc2)cccc1C(=O)O [compound 6] | – | 190 ± 20 nM
O=C(O)c1cccc(NC(=O)c2ccc(OCCc3ccccc3)cc2)c1 [compound 9] | – | 150 ± 20 nM
O=C(O)c1ccnc(NC(=O)c2ccc(Oc3ccccc3)cc2)c1 [compound 15] | – | 70 ± 20 nM
O=C(Nc1cccc2c(=O)cc(C(=O)O)oc12)c1ccc(OCCCCc2ccccc2)cc1 [compound 5] | inactive (50 μM) | –

Target: T2, recombinant human LTA4H (Homo sapiens, UniProt P09960)
T2 sequence (P09960 1-611): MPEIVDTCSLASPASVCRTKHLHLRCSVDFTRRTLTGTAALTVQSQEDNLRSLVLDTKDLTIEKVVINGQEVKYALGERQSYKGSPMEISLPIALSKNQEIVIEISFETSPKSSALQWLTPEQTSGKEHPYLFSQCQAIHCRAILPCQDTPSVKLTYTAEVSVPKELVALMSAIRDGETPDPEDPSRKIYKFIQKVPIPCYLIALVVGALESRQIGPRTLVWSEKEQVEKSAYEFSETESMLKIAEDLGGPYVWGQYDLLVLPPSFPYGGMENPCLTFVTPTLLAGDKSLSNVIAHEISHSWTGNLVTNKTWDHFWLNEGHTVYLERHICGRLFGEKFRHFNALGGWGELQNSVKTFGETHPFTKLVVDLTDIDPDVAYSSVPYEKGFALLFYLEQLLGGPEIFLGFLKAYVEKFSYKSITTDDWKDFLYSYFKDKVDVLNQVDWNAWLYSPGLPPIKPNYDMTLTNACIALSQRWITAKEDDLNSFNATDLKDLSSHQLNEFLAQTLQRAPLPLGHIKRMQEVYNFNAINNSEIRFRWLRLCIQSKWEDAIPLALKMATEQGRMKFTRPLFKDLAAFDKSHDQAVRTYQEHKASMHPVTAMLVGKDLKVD
Experiment: not given
Conditions: not given

IC50 | SMILES
280 ± 20 nM | O=C(Nc1cccc(C(=O)O)n1)c1ccc(Oc2ccccc2)cc1 [compound 13]
950 ± 10 nM | O=C(Nc1ccnc(C(=O)O)c1)c1ccc(Oc2ccccc2)cc1 [compound 14]
2100 ± 100 nM | O=C(O)c1ccnc(NC(=O)c2ccc(Oc3ccccc3)cc2)c1 [compound 15]
130 ± 10 nM | CS(=O)(=O)Nc1cccc(NC(=O)c2ccc(OCCCc3ccccc3)cc2)c1 [compound 18]
1900 ± 100 nM | O=C(O)Cc1cccc(NC(=O)c2ccc(OCCCc3ccccc3)cc2)c1 [compound 17]
200 ± 20 nM | O=C(O)c1ccc(NC(=O)c2ccc(OCCCc3ccccc3)cc2)cc1 [compound 16]

Continued, compound first:

SMILES | IC50
O=C(Nc1cccc2c(=O)cc(-c3nnn[nH]3)oc12)c1ccc(OCCCCc2ccccc2)cc1 [compound 4, pranlukast, reference compound] | 1600 ± 200 nM
O=C(O)c1cccc(NC(=O)c2ccc(Oc3ccccc3)cc2)c1 [compound 11] | 550 ± 60 nM
O=C(O)c1ccc(NC(=O)c2ccc(OCCCCc3ccccc3)cc2)cc1 [compound 7] | 370 ± 20 nM
COc1c(NC(=O)c2ccc(OCCCCc3ccccc3)cc2)cccc1C(=O)O [compound 6] | 5500 ± 500 nM
O=C(O)c1cccc(NC(=O)c2ccc(OCCc3ccccc3)cc2)c1 [compound 9] | 610 ± 60 nM
O=C(O)c1cccc(NC(=O)c2ccc(Oc3cccc(-c4ccccc4)c3)cc2)c1 [compound 12] | 5200 ± 600 nM
O=C(O)c1cccc(NC(=O)c2ccc(OCCCCc3ccccc3)cc2)c1 [compound 3] | 540 ± 70 nM
O=C(O)c1cccc(NC(=O)c2ccc(OCc3ccccc3)cc2)c1 [compound 10] | 1100 ± 100 nM
O=C(Nc1cccc2c(=O)cc(C(=O)O)oc12)c1ccc(OCCCCc2ccccc2)cc1 [compound 5] | 15000 ± 2000 nM

Same assay, conditions: LTA4H inhibition at the highest tested concentration (up to 100 μM); mean±S.E.M., n=3

LTA4H max. inhib. | SMILES
90.8±0.3% | O=C(Nc1cccc(C(=O)O)n1)c1ccc(Oc2ccccc2)cc1 [compound 13]
97.9±0.1% | O=C(Nc1ccnc(C(=O)O)c1)c1ccc(Oc2ccccc2)cc1 [compound 14]
89.6±0.6% | O=C(O)c1ccnc(NC(=O)c2ccc(Oc3ccccc3)cc2)c1 [compound 15]
99.7±0.1% | O=C(Nc1nc(C(=O)O)co1)c1ccc(OCCCc2ccccc2)cc1 [compound 20]
89.5±0.5% | CS(=O)(=O)Nc1cccc(NC(=O)c2ccc(OCCCc3ccccc3)cc2)c1 [compound 18]
97.0±0.2% | O=C(O)Cc1cccc(NC(=O)c2ccc(OCCCc3ccccc3)cc2)c1 [compound 17]
98.8±0.1% | O=C(O)c1ccc(NC(=O)c2ccc(OCCCc3ccccc3)cc2)cc1 [compound 16]

Continued, compound first:

SMILES | LTA4H max. inhib.
O=C(Nc1cccc2c(=O)cc(-c3nnn[nH]3)oc12)c1ccc(OCCCCc2ccccc2)cc1 [compound 4, pranlukast, reference compound] | 82.6±0.8%
O=C(O)c1cccc(NC(=O)c2ccc(Oc3ccccc3)cc2)c1 [compound 11] | 98.2±0.1%
O=C(O)c1ccc(NC(=O)c2ccc(OCCCCc3ccccc3)cc2)cc1 [compound 7] | 97.8±0.1%
COc1c(NC(=O)c2ccc(OCCCCc3ccccc3)cc2)cccc1C(=O)O [compound 6] | 85±2%
O=C(O)c1cccc(NC(=O)c2ccc(OCCc3ccccc3)cc2)c1 [compound 9] | 96.0±0.2%
O=C(O)c1cccc(NC(=O)c2ccc(Oc3cccc(-c4ccccc4)c3)cc2)c1 [compound 12] | 81.1±0.6%
O=C(O)c1cccc(NC(=O)c2ccc(OCCCCc3ccccc3)cc2)c1 [compound 3] | 97.2±0.4%
O=C(O)c1cccc(NC(=O)c2ccc(OCc3ccccc3)cc2)c1 [compound 10] | 94.9±0.2%
O=C(Nc1cccc2c(=O)cc(C(=O)O)oc12)c1ccc(OCCCCc2ccccc2)cc1 [compound 5] | 80±5%
